# Laboratory results published in patent publication USRE48267E1, “Variants of C-type natriuretic peptide” (priority 2009, dated 2020).
# Where a SMILES comes first, the peptide text is derived from it. Bridges are numbered along the chain shown (N, C = ends). The star is where a group is joined. MeO(CH2CH2O)23CH2CH2CO = COCCOCCOCCOCCOCCOCCOCCOCCOCCOCCOCCOCCOCCOCCOCCOCCOCCOCCOCCOCCOCCOCCOCCOCCC(=O)*
# Test system: FGFR3^ach mice
# Experiment: efficacy in mouse model of mild achondroplasia
# Format: in vivo
# Settings: 200 nmol/kg s.c. once daily for 5 weeks
# Description: To assess the biodistribution of CNP37 in the bone growth plate in vivo and the in vivo effects of CNP37 on the growth plate (including total growth plate thickness, hypertrophic zone thickness, and cellularity of proliferating zone), bone samples were obtained from FGFR3^ach mice treated with vehicle or CNP37 as described above. For biodistribution and in vivo effects studies, tibias were fixed and stored in 70% ethanol. For immunohistochemistry, the samples were decalcified in 5% formic acid for 2 days, dehydrated and embedded in paraffin. Bones were sectioned at 5 um (microns), which were then deparaffinized, rehydrated, and used for CNP immunohistochemistry as described above. For cellular image analysis, bones were sectioned at 5 (microns), and then deparaffinized, rehydrated, and stained with Alcian Blue for 30 minutes (pH 2.5; MasterTech) and Hematoxylin &
# Eosin for 30 seconds. Stained sections were visualized and photographed by brightfield microscopy. Thicknesses of the growth plate and the proliferating and hypertrophic zones were measured using ImageJ software.
# The efficacy of CNP variants in enhancing growth and correcting achondroplasia was tested in a mouse model of mild achondroplasia, using a strain of transgenic mice expressing a human FGFR-3 gene having a G380R mutation (FGFR3^ach) (Wang et al., Proc. Natl. Acad. Sci. USA, 96(8): 4455-4460 (1999); Naski et al., Development USA, 125: 4977-4988 (1998); U.S. Pat. Nos. 6,265,632 and 6,136,040).
# At 3 weeks of age, FGFR3^ach mice and their wild-type littermates were anesthetized to have lateral whole-body X-ray images taken by Faxitron, and randomized by body weight into the following treatment groups (n=8/group): (1) wild-type/vehicle, (2) FGFR3^ach/vehicle, (3) FGFR3^ach/CNP37, and (4) FGFR3^ach/PEO24-GANRR-CNP22(K4R) (SEQ ID NO: 36). The mice received once daily subcutaneous (s.c.) administration of designated test article (vehicle or 200 nmol/kg CNP variant) for 5 weeks. Satellite groups (n=3) were used to confirm exposure of each test article following a single subcutaneous administration on Day 1. Wild-type male FVB mice that received daily s.c. injection of vehicle for 5 weeks were used as a control for normal growth.
# X-ray measurements at baseline and at the end of the study were performed to determine change in the head length, area of the skull, and the external auditory meatus (EAM, the ear canal running from the outer ear to the middle ear). Body weight and tail length were measured at least once weekly, using a digital caliper to measure tail length, and body (nasoanal) length was measured after 5 weeks of treatment. Bone (tibia, femur, ulna and humerus) lengths were measured using a digital caliper at necropsy.
# On Day 37, all mice were sacrificed by terminal anesthesia and whole-animal photographs and X-ray images by Faxitron were taken. Left and right tibia, femur, humerus, and ulna were collected and measured using a digital caliper. The left portions of each bone were processed for histology, and the right portions were snap-frozen for archival. Samples obtained from the bones were used to evaluate the effects of NP variants on endochondral bone growth.
smiles,measurement,value
CC[C@H](C)[C@@H]1NC(=O)[C@H](CCCNC(=N)N)NC(=O)[C@H](CC(=O)O)NC(=O)[C@H](CC(C)C)NC(=O)[C@H](CCCCN)NC(=O)[C@H](CC(C)C)NC(=O)CNC(=O)[C@H](Cc2ccccc2)NC(=O)[C@@H](NC(=O)CNC(=O)[C@H](CCCNC(=N)N)NC(=O)[C@H](CO)NC(=O)[C@H](CC(C)C)NC(=O)CNC(=O)[C@H](CCCNC(=N)N)NC(=O)[C@H](CCCNC(=N)N)NC(=O)[C@H](CC(N)=O)NC(=O)[C@H](C)NC(=O)CNC(=O)CCOCCOCCOCCOCCOCCOCCOCCOCCOCCOCCOCCOCCOCCOCCOCCOCCOCCOCCOCCOCCOCCOCCOCCOC)CSSC[C@@H](C(=O)O)NC(=O)CNC(=O)[C@H](CC(C)C)NC(=O)CNC(=O)[C@H](CO)NC(=O)[C@H](CCSC)NC(=O)[C@H](CO)NC(=O)CNC1=O [PEO24-GANRR-CNP22(K4R)] ({MeO(CH2CH2O)23CH2CH2CO}-GANRRGLSRGCFGLKLDRIGSMSGLGC-OH; disulfide 11-27),"Femur length, relative to vehicle-treated FGFR3^ach mice = 100%",100%
same,"Humerus length, relative to vehicle-treated FGFR3^ach mice = 100%",100%
same,"Naso-Anal length, relative to vehicle-treated FGFR3^ach mice = 100%",99%
same,"Tail length, relative to vehicle-treated FGFR3^ach mice = 100%",100%
same,"Tibia length, relative to vehicle-treated FGFR3^ach mice = 100%",102%
same,"Ulna length, relative to vehicle-treated FGFR3^ach mice = 100%",101%
